Experimental findings from PubChem BioAssay (NCI) are described below.

Common to all, as to test: NCI anticancer screen, dose series, 48 h
Assay [1] deals with NCI/ADR-RES ovarian.
Assay [2] concerns RXF 393 renal.
The test system of assay [3] is SK-MEL-28 melanoma.
For assay [4], the system named is T-47D breast.
Assay [5] concerns A549 NSCLC.
For assay [6], the system named is RPMI-8226 leukemia.
Assay [7] relates to KM12 colon.
Assay [8] relates to K-562 leukemia.
For assay [9], the system named is UACC-257 melanoma.
For assay [10], the system named is NCI-H460 lung.
The test system of assay [11] is MDA-N.

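Tested at 5 concentrations; 48 h exposure; 96-well plates; endpoints linearly interpolated, else capped at highest concentration. At the TGI there is no net growth.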

With `CC(=O)N1CCN(CCCCN2c3ccccc3Sc3cc(N=[N+]=[N-])ccc32)CC1`, the TGI worked out at 27.4 µM in [1]; 24.4 µM in [2]; 33.4 µM in assay [3]; 15.2 µM in assay [4]; 30 µM in assay [5]; 29.1 µM in [6]. The TGI amounted to 28.2 µM in [7]; 31.3 µM in [8]; 40.2 µM in assay [9]; 28.1 µM in [10]; 30.5 µM in assay [11].

For the compound `O=C1c2ccccc2C(=O)c2c(NCC3CO3)cccc21` (stereo not drawn), the TGI was 38 µM in assay [1]; 20.6 µM in assay [2]; greater than 63.7 µM in [3]; greater than 100 µM in [4]; greater than 100 µM in assay [5]; greater than 85 µM in [6]. In addition, the TGI is greater than 76.3 µM in [7]; 17.3 µM in [8]; greater than 100 µM in [9]; greater than 100 µM in assay [10]; 23.7 µM in assay [11].

Take `Cc1ccc(S(=O)(=O)NCCCSCCO)cc1`: the TGI in assay [1], in assay [2], in [3], in assay [4], in assay [5] and in assay [7] was greater than 100 µM in each case. The TGI in [8], in assay [9], in assay [10] and in assay [11] was greater than 100 µM throughout.

With `COc1ccccc1[C@@H]1CCC2CC[C@@H](c3ccccc3OC)[N+]21Cc1ccccc1` (stereo partly drawn), the TGI is 32.3 µM in assay [1]; 8.53 µM in assay [2]; 22.3 µM in assay [3]; 10.8 µM in assay [4]; 13.1 µM in assay [5]; 1.47 µM in assay [6]. For the same compound, the TGI worked out at 7.03 µM in assay [7], 12.7 µM in [8], 14.1 µM in assay [9] and 12.6 µM in [11].

Turning to `Cc1sc2nc3n(c(=O)c2c1C)N=C(c1ccccc1)CS3`, the TGI in assay [1], in assay [2], in assay [3], in assay [4], in assay [5] and in [6] was greater than 100 µM each time. Besides, the TGI in assay [7], in assay [8], in [9], in [10] and in [11] was greater than 100 µM in each case.

As to `CCOC(=O)c1cc([N+](=O)[O-])cc([N+](=O)[O-])c1Sc1ncnc2nc[nH]c12`, the TGI in [1] is 8.4 µM; in [2], 3.29 µM; in assay [3], 11.2 µM; in [4] it was 3.34 µM; in assay [5], 32.5 µM; in assay [6] it was greater than 21.8 µM. Also, the TGI in assay [7] is 18.1 µM; in assay [8], greater than 100 µM; in assay [10], 33.9 µM; in assay [11], 5.28 µM.

As for `CCOC(=O)[C@@]12NN=N[C@@H]1[C@H]1CO[C@H](c3ccccc3)N1C2=O`, the TGI in assay [1] is 75.9 µM; in [2], 13.9 µM; in assay [3], 19.5 µM; in assay [4] it was 36 µM; in assay [5], greater than 100 µM; in [6], 8.71 µM. The TGI in assay [7] was determined as 35 µM; in [9], 19.7 µM; in [10] it was 20.5 µM; in [11], 25.7 µM.

For `COc1ccc2nc3c([N+](=O)[O-])ccc(NCCCN(C)C)c3c(N)c2c1`, the TGI in assay [1] worked out at 4.25 µM; in [2], 2.81 µM; in assay [3] it was 3.04 µM; in assay [4], 3.98 µM; in assay [5] it was 3.15 µM; in assay [6] it was 1.84 µM. Besides, the TGI in assay [7] came out at 3.02 µM; in assay [8], 1.41 µM; in assay [10] it was 2.59 µM; in assay [11], 3.47 µM.

For `CCOC(=O)CCC(C(=O)OCC)n1nnc2ccc(Nc3c(C)[n+]([O-])c4cc(F)c(OCC)cc4[n+]3[O-])cc21` (stereo not drawn), the TGI in [1] is greater than 100 µM; in assay [2] it was greater than 100 µM; in assay [4], greater than 100 µM; in assay [5], greater than 100 µM; in assay [6] it was 54.3 µM; in assay [7], greater than 100 µM. The TGI is greater than 100 µM in assay [8], 42 µM in assay [9], greater than 100 µM in [10] and greater than 100 µM in assay [11].

Consider `Cc1cc2nc(CC(C(F)(F)F)C(F)(F)F)oc2cc1C`, for which the TGI in [1] is greater than 43.3 µM; in assay [2], 9.73 µM; in assay [3], 15.8 µM; in assay [4] it was 10.7 µM; in assay [5], 30.1 µM; in assay [6], 1.61 µM. In addition, the TGI in assay [7] was determined as 10.3 µM; in assay [9] it was 9.55 µM; in assay [10] it was 15.3 µM; in assay [11], 5.85 µM.

As for `CCN(CCN(CC)C(=O)NC)C(=O)NC`, the TGI in assay [1], in [2], in assay [3], in assay [4], in [5] and in assay [6] was greater than 100 µM each time. Moreover, the TGI in assay [8], in assay [9], in assay [10] and in [11] was greater than 100 µM each time.

`O=C1CCc2ccccc2O1`: the TGI in assay [1], in [2], in [3], in [4], in [6] and in [7] was greater than 100 µM throughout. In addition, the TGI in assay [8], in assay [9], in [10] and in assay [11] was greater than 100 µM in each case.

On to `O=C1[C@H](O)[C@@H]2CCC[C@@]23CCCN13`, for which the TGI in assay [1], in [2], in [4], in assay [5], in assay [6] and in [7] was greater than 100 µM in each case. The TGI in [8], in [9], in assay [10] and in [11] was greater than 100 µM each time.
